The source of these data is PMC6315541, “Nile Tilapia Derived Antimicrobial Peptide TP4 Exerts Antineoplastic Activity Through Microtubule Disruption” (Marine Drugs, 2018).

One data set deals with A549 cells. The data set can be described thus: Cell viability (CellTiter-Glo ATP assay) in A549 cells. The class given is cell-based, human. The note with it: 24 h; for relative ATP levels (cell viability): CellTiter-Glo ATP assay, luminescence, mean ± SD of three independent assays, n ≥ 5 wells per dose. The procedure:
Figure 6 Loss of cancer-killing ability in TP4 mutants. (A) Cell viability in A549 cells was determined by the adenosine triphosphate (ATP) assay following treatment with varying doses of TP4 and TP4 mutants for 24 h. Multiple wells were analyzed for each assay. Results represent the mean ± SD. Statistical comparisons between groups were performed using two-way ANOVA: a, not significant; b, p < 0.05; d, p < 0.001. Statistical analyses are shown in Supplementary Table S1. (B) Cells were stained for TP4 (WT panel), FITC (MT-1 to MT-6 panels), α-Tubulin, and F-actin. Hoechst33342 was used for nuclei staining. Boxed regions are magnified in the furthest right panels. […] Bar: 20 μm.
The A549 cell line (Bioresource Collection and Research Center (BCRC) 60074) was purchased from the BCRC and cultured according to BCRC recommendations. For the cell viability and transfection assay, 4–5 × 10^3 cells were seeded into the wells of a 96-well plate and cultured overnight. Cells were then treated according to the indicated doses and times. Cell viability was quantified using the CellTiter-Glo® Luminescent Cell Viability Assay kit (ATP assay) (Madison, WI, USA) as previously described. The luminescent signal was measured using a photometer (SpectraMax® i3, Molecular Devices, Wals, Austria).
For the multi-well based assay, cells were plated at least in quadruplicate. Data were collected from independently repeated experiments (N ≥ 3) and were analyzed by Prism5 software (GraphPad Inc., La Jolla, CA, USA). Statistical significance was determined by a two-tailed Student’s t-test or one-way/two-way analysis of variance (ANOVA) with a Bonferroni post hoc test. Differences were considered statistically significant at p < 0.05. […]
Supplementary Table S1. Cellular toxicit y of TP 4 to A549 cells was evaluated b y cell viability. Results of statis tical tests on data in Figu re 6A are shown. Multiple wells were anal yzed for each ex periment (n ≥ 5 wells per do se). Results represent the mean ± SD from three independent assays. Statistical comparisons between mock versus TP4 treatment groups were performed using two -way ANOVA anal ysis with Bonferroni post-hoc test: a, not signi ficant; b, P < 0.05; c, P < 0.01; d, P < 0.001. […]
(A-G) Th e helical projection plot and s tructural model o f TP4 (A) and TP4 variants (MT-1 to MT-6, B-G ). The helical proj ecti on was produced b y an online helical wheel projection program (http://rzlab.ucr.edu/scripts/wheel/wheel.cgi). Amino acid residues are numbered and each amino acid is connected with lines to indicate its relative position along the helix. The hydrophobic residues are shown as diamonds ; h ydrophilic residues are circles. Residues with negative charge are shown as trian gles and positively charged residues are pentagons. Hydrophobicity is color coded. The
Background: In ATP-based viability assays light output follows the ATP content of the culture.

Data set [1] relates to Pure tubulins (microtubule polymerization). The data set can be described thus: In vitro tubulin polymerization assay. The format is biochemical. The procedure: To test the models predicted by the molecular docking analysis, TP4 mutants were generated by substitution of Phe1, Ile16, and Arg23 with either Gly or Ala (mutant names and sequences are provided in Figure 5A), and the mutants were analyzed for their interaction with α-Tubulin. The sequence of TP4 is expected to form an α-helix, see Supplementary Figure S1A.
Figure 5 TP4 inhibits microtubule polymerization. (A) Sequences of the TP4 wild type (WT) and mutants. Letters shown in red indicate substituted amino acids. (B,C) Dynamic measurement of the microtubule polymerization. Pure tubulins were assembled in the presence of TP4 (WT), TP4 mutants (MT1-6). H2O, paclitaxel, and nocodazole served as vehicle, positive, and negative controls, respectively.
The Microtubule/Tubulin In Vivo Assay (Cytoskeleton, Inc., Denver, CO, USA) was performed using the “inhibitor condition” provided in the manufacturer’s instructions. Microtubule regrowth was assayed as described previously. Briefly, cells with or without 3 h, 10 μg mL^−1 TP4 treatment were incubated with nocodazole (20 μM) for 6 h at 37 °C. After washing with warm culture medium, cells were incubated for a further 0, 10, or 30 minutes. Fixed cells were stained with the α-Tubulin antibody and for F-actin. Confocal images were acquired on an FV3000 microscope (Olympus Corp., Tokyo, Japan).

The test system of data set [2] is microtubule regrowth in A549 cells. The data set can be described thus: Microtubule regrowth assay after nocodazole washout. The format is cell-based, human. The settings on record: 10 μg mL^−1 TP4 3 h, nocodazole 20 μM 6 h, washout and recovery medium, α-Tubulin ICC, N = 3. The procedure:
To examine whether TP4 may affect microtubule dynamics, A549 cells were treated with TP4, and cytoskeletal elements were analyzed by immunocytochemistry (ICC). […] We then asked whether TP4 treatment may influence tubulin protein levels by performing Western blots on lysates from A549 cells that had been treated with vehicle or TP4. […] We next conducted a microtubule regrowth assay to further address whether TP4 may disrupt microtubule polymerization. TP4 was applied to A549 cells that had been treated with or without Nocodazole (20 μM) treatment for 6 h, which completely depolymerizes the microtubule network. The repolymerization of microtubules was then initialized by the addition of fresh recovery medium, and regrowth was analyzed by ICC.
Figure 2 TP4 disrupts the microtubule network in cancer cells. (A) Cells were stained for α-Tubulin and F-actin. Hoechst33342 was used to stain nuclei. Arrows indicate cells with negative α-Tubulin staining. Bar: 20 μm. (B) Total lysates from cells with mock (labeled C) or TP4 treatment (labeled T) were analyzed by Western blot using antibodies against GAPDH and α-Tubulin. Quantification of the α-Tubulin signal normalized to GAPDH is shown. Mr is the molecular weight. […] Bar: 20 μm (D) Quantification of the number of cells with Tubulin-positive and Tubulin-negative staining. […]

For the sequence “FIHHIIGGLFSAGKAIHRLIRRRRR [TP4, synthesized Nile tilapia-derived antimicrobial peptide, Tilapia piscidin 4]”, the “relative ATP levels (cell viability)” value in the data set with A549 cells (3.35 µM) is 0.580±0.061; in the data set on A549 cells (5.03 µM), 0.211±0.030; in the data set on A549 cells (6.71 µM, listed as WT), 0.129±0.034; in the data set on A549 cells (6.71 µM, listed as wild-type TP4, 6.71 µM), 0.130 ± 0.036; in the data set with A549 cells (20.12 µM, listed as WT), 0.009±0.010; with A549 cells (20.12 µM, listed as wild-type TP4, 20.12 µM), 0.010 ± 0.010. Further, the “cytotoxicity to A549 cells (in words)” value in the data set with A549 cells (doses 3.35-20.12 µM, ATP assay, Figure 6A) is “obvious dose-dependent cytotoxic effects”. For the same sequence, the “effect on microtubule polymerization” value in data set [1] (10 μg mL^−1 peptide, dynamic measurement, Figure 5B) is recorded as “sufficient to disrupt microtubule polymerization”; in data set [1] (20 μg mL^−1 peptide, compared to controls, Figure 5C), “completely inhibited microtubule polymerization”. The “cells with microtubule regrowth defects” value in data set [2] is listed as “increased portion of TP4-treated cells had microtubule regrowth defects”.
